# Patent US20230172204A1 (BASF SE, priority 2020, published 2023)
# Tests used:
# [1] = system: Phakopsora pachyrhizi (F129L); assay: Protective control of soybean rust on soybeans (PHAKPA P6); format: in vivo; details: for % PHAKPA (F129L) Disease level P6 at 4 ppm: protective P6, 4 ppm; for % PHAKPA (F129L) Disease level P6 at 4 ppm / % PHAKPA (F129L) Disease level P6 at 16 ppm: soybean rust F129L; for % PHAKPA (F129L) Disease level P6 at 16 ppm: protective P6, 16 ppm; for PHAKPA (F129L) Disease level (%) P6 at 16 ppm: P6 protective, % diseased leaf area
# [2] = system: Phakopsora pachyrhizi (F129L); assay: Protective control of soybean rust on soybeans (PHAKPA P2); format: in vivo; details: for % PHAKPA (F129L) Disease level P2 at 4 ppm: protective P2, 4 ppm; for % PHAKPA (F129L) Disease level P2 at 4 ppm / % PHAKPA (F129L) Disease level P2 at 16 ppm: soybean rust F129L; for % PHAKPA (F129L) Disease level P2 at 16 ppm: protective P2, 16 ppm; for PHAKPA (F129L) Disease level (%) P2 at 16 ppm / PHAKPA (F129L) Disease level (%) P2 at 4 ppm: P2 protective, % diseased leaf area
SMILES,% PHAKPA (F129L) Disease level P6 at 4 ppm [1] [%],% PHAKPA (F129L) Disease level P6 at 16 ppm [1] [%],% PHAKPA (F129L) Disease level P2 at 4 ppm [2] [%],% PHAKPA (F129L) Disease level P2 at 16 ppm [2] [%],PHAKPA (F129L) Disease level (%) P6 at 16 ppm [1] [%],PHAKPA (F129L) Disease level (%) P2 at 16 ppm [2] [%],PHAKPA (F129L) Disease level (%) P2 at 4 ppm [2] [%]
CO/C=C(/C(=O)OC)c1cccc(C)c1CO/N=C(\C)c1c(F)cccc1C(F)(F)F [compound 390],18,2,22,0,,,
CNC(=O)/C(=N/OC)c1ccccc1CO/N=C(\C)c1ccccc1OC [reference compound],,,,,80,87,
CCc1ccccc1/C(C)=N/OCc1c(C)cccc1/C(=N\OC)C(=O)NC [compound 176],100,90,100,100,,,
CO/C=C(/C(=O)OC)c1cccc(C)c1CO/N=C(\C)c1c(Cl)ccc(F)c1OC(F)(F)F [compound 442],80,77,100,93,,,
CO/N=C(/C(=O)OC)c1cccc(C)c1CO/N=C(\C)c1cc(Cl)ccc1C(F)(F)F [compound 251],80,80,80,80,,,
CNC(=O)/C(=N/OC)c1ccccc1CO/N=C(/c1ccc(F)cc1)C(F)F [reference compound],,,,,15,15,
CNC(=O)/C(=N/OC)c1cccc(C)c1CO/N=C(\C)c1cccc(F)c1C(F)(F)F [compound 326],30,1,25,0,,,
CNC(=O)/C(=N/OC)c1cccc(C)c1CO/N=C(\C)c1cc(C)ccc1C [compound 278],90,93,90,60,,,
CO/N=C(/C(=O)OC)c1cccc(C)c1CO/N=C(\C)c1ccc(Br)cc1C(F)(F)F [compound 257],100,57,93,35,,,
CNC(=O)/C(=N/OC)c1cccc(C)c1CO/N=C(\C)c1c(F)cc(Br)cc1OC(F)(F)F [compound 355],48,4,34,7,,,
CO/N=C(/C(=O)OC)c1cccc(C)c1CO/N=C(\C)c1cccc(C(C)(C)C)c1 [compound 96],3,0,6,1,,,
CNC(=O)/C(=N/OC)c1cccc(C)c1CO/N=C(\C)c1ccc(/C(C)=N\OC)cc1C(F)(F)F [compound 420],12,1,8,0,,,
CO/N=C(/C(=O)OC)c1ccccc1CO/N=C(\C)c1ccc(Cl)cc1 [reference compound],,,,,43,63,
CO/N=C(/C(=O)OC)c1cccc(C)c1CO/N=C(\C)c1cccc(F)c1 [Ex. 86],23,3,12,3,7,6,
CO/N=C(/C(=O)OC)c1cccc(C)c1CO/N=C(\C)c1cccc(C(C)(F)F)c1 [compound 302],47,3,47,4,,,
CNC(=O)/C(=N/OC)c1cccc(C)c1CO/N=C(\CC(F)(F)F)c1cc(Cl)cc(Cl)c1 [compound 255],100,87,97,83,,,

SMILES,% PHAKPA (F129L) Disease level P6 at 4 ppm [1] [%],% PHAKPA (F129L) Disease level P6 at 16 ppm [1] [%],% PHAKPA (F129L) Disease level P2 at 4 ppm [2] [%],% PHAKPA (F129L) Disease level P2 at 16 ppm [2] [%],PHAKPA (F129L) Disease level (%) P6 at 16 ppm [1] [%],PHAKPA (F129L) Disease level (%) P2 at 16 ppm [2] [%],PHAKPA (F129L) Disease level (%) P2 at 4 ppm [2] [%]
"CO/N=C(/C(=O)OC)c1cccc(C)c1CO/N=C(\SC)c1cccc(Cl)c1 [drawing 982, reference compound]",,,,,18,,47
CNC(=O)/C(=N/OC)c1cccc(C)c1CO/N=C(\C)c1ccccc1C1CC1 [compound 219],87,43,60,8,,,
CNC(=O)/C(=N/OC)c1cccc(C)c1CO/N=C(\C)c1c(F)ccc(F)c1C(F)(F)F [compound 359],100,43,100,37,,,
CNC(=O)/C(=N/OC)c1cccc(C)c1CO/N=C(\C)c1cccc(C(C)(F)F)c1 [compound 303],12,0,2,0,,,
CNC(=O)/C(=N/OC)c1cccc(C)c1CO/N=C(\C)c1cccc(Br)c1F [compound 141],2,0,2,0,,,
CNC(=O)/C(=N/OC)c1cccc(C)c1CO/N=C(\C)c1cccc(-c2noc(C(F)(F)F)n2)c1 [Ex. 205],,,,,1,1,
CO/N=C(/C(=O)OC)c1cccc(C)c1CO/N=C(\C)c1ccc(-c2ccccc2)cc1 [compound 111],46,10,28,8,,,
CO/N=C(/C(=O)OC)c1cccc(C)c1CO/N=C(\C)c1ccccc1C(F)(F)F [Ex. 36],100,43,100,42,57,47,
CO/N=C(/C(=O)OC)c1ccccc1CO/N=C(/c1ccc(Cl)cc1)C(F)F [reference compound],,,,,90,100,
C=Cc1cccc(/C(=N\OC)C(=O)OC)c1CO/N=C(\C)c1cccc(C(F)(F)F)c1 [Ex. 13],25,0,28,0,,,
CO/N=C(/C(=O)OC)c1cccc(C)c1CO/N=C(\C)c1cc(F)ccc1F [compound 118],32,0,10,0,,,
CO/N=C(/C(=O)OC)c1ccccc1CO/N=C(\C)c1ccccc1C(F)(F)F [reference compound],,,,,90,87,
CNC(=O)/C(=N/OC)c1cccc(C)c1CO/N=C(\C)c1ccc(/C(C)=N/OC)cc1 [compound 182],13,0,6,0,,,
CCc1ccc(/C(C)=N/OCc2c(C)cccc2/C(=N\OC)C(=O)OC)cc1 [compound 183],38,2,16,0,,,
CO/N=C(/C(=O)OC)c1cccc(C)c1CO/N=C(\C)c1ccc(OC(F)(F)F)cc1 [compound 133],2,0,1,0,,,
"CO/N=C(/C(=O)OC)c1cccc(C)c1CO/N=C(/c1cccc(C)c1)C1CC1 [drawing 971, reference compound]",,,,,37,,80
